Common to all, as to assay type: biochemical
The target of one assay is WT IDH1 (Homo sapiens, UniProt O75874). Kind of assay: Wild-type IDH1 enzyme assay, NADPH production by diaphorase/resazurin coupled detection. Particulars: 60 min preincubation with enzyme/NADP, 45 min reaction, room temperature. How it is done: (§1) Compounds were tested against 3 enzymes WT IDH1, IDH1 R132C, IDH1 R132H
(§2) Assay Format: The production or depletion of NADPH by IDH enzymes was measured by diaphorase/resazurin coupled detection.
Reaction Procedure Wild-Type:
1. Deliver enzyme/NADP in the reaction buffer into wells of reaction plate except No Enzyme control wells. Add buffer+NADP into No Enzyme wells. 2. Deliver compound in 100% DMSO into the enzyme mixture. Spin down and preincubate for 60 min at room temperature. 3. Deliver Substrate mixture to initiate the reaction. Spin down plate and gently shake 45 minutes at room temperature.
4. Make a 3× mix of Detection mixture in the reaction buffer, and add detection mixture into the reaction. Spin down. 5. Incubate at room temperature for 10 minutes.
6. Measure in Envision. (Ex/Em=535/590 nm)
7. Subtract background (the average value of the No Enzyme control wells) from raw data. Average the DMSO control wells and set value as 100%. Take ratio of measured data/average DMSO control value times 100% to arrive at % activity.
For orientation: The colour change of resazurin is a common sign of viable cells or microbes.

The target of a further assay is IDH1 (R132C) (Homo sapiens, UniProt O75874, R132C). Put plainly: IDH1 R132C enzyme assay, NADPH depletion by diaphorase/resazurin coupled detection. Particulars: 60 min preincubation with enzyme/NADPH, 45 min reaction, room temperature. How it is done:
as §1, §2
(§3) Reaction Procedure Mutant:
(§4) 8. Deliver enzyme/NADPH in the reaction buffer into wells of reaction plate except No Enzyme control wells. Add buffer+NADPH into No Enzyme wells. 9. Deliver compound in 100% DMSO into the enzyme mixture. Spin down and preincubate for 60 min at room temperature. 10. Deliver Substrate mixture to initiate the reaction. Spin down plate and gently shake 45 minutes at room temperature.
(§5) Detection Step (the Same as Wt):
(§6) 11. Make a 3× mix of Detection mixture in the reaction buffer, and add detection mixture into the reaction. Spin down. 12. Incubate at room temperature for 10 minutes.
(§7) 13. Measure in Envision. (Ex/Em=535/590 nm)
(§8) 14. […] (the average value of the No Enzyme wells). Average the DMSO control wells and set value as 100%. Take ratio of measured data/average DMSO control value times 100% to arrive at % activity.

In the next assay the target is IDH1 (R132H) (Homo sapiens, UniProt O75874, R132H). Put plainly: IDH1 R132H enzyme assay, NADPH depletion by diaphorase/resazurin coupled detection. Particulars: 60 min preincubation with enzyme/NADPH, 45 min reaction, room temperature. On the procedure: as §1, §2, §3, §4, §5, §6, §7, §8
Chain of IDH1 (R132H) (O75874 whole entry R132H): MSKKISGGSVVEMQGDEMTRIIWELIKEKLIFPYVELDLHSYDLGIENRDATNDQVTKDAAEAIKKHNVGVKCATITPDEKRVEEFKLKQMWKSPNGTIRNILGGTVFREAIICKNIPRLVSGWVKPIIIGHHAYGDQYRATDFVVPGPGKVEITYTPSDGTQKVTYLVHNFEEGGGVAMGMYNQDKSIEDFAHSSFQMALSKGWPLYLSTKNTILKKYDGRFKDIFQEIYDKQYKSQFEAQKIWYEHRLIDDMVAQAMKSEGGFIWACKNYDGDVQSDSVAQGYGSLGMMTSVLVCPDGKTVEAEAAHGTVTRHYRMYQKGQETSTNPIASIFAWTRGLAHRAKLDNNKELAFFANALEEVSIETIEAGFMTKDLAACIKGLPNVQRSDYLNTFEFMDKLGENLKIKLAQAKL

Eight compounds from US20210403460A1, “INHIBITORS OF MUTANT ISOCITRATE DEHYDROGENASES AND COMPOSITIONS AND METHODS THEREOF” (IsoCure Biosciences Inc., priority 2016, published 2021) can be followed below.

SMILES strings stand for the structures.

Chain of IDH1 (R132C) (O75874 whole entry R132C): as the sequence (O75874 whole entry R132H) above, with H132C counted along it
Chain of WT IDH1 (O75874 whole entry): as the sequence (O75874 whole entry R132H) above, with H132R counted along it

In the case of `C=CC(=O)N1CCN(Cc2ccc([C@H](C)Nc3nccc(N4C(=O)OC[C@@H]4C(C)C)n3)cc2)CC1` [IS01, (S)-3-(2-(((S)-1-(4-((4-acryloylpiperazin-1-yl)methyl)phenyl)ethyl)amino)pyrimidin-4-yl)-4-isopropyloxazolidin-2-one], the half-inhibitory concentration (IC50) against WT IDH1 is 9.46 µM; against IDH1 (R132C) it was 0.00161 µM; against IDH1 (R132H), 0.00132 µM.
In the same order, the values of `C=CC(=O)Nc1ccc(Nc2ccc([C@H](C)Nc3nccc(N4C(=O)OC[C@@H]4C(C)C)n3)cc2)nc1` [IS03, N-(6-((4-((S)-1-((4-((S)-4-isopropyl-2-oxooxazolidin-3-yl)pyrimidin-2-yl)amino)ethyl)phenyl)amino)pyridin-3-yl)acrylamide] are 8.52 µM, 0.00335 µM and 0.00361 µM.
Regarding `C=CC(=O)Nc1ccc(Nc2ccc([C@H](C)Nc3nccc(N4C(=O)OC[C@@H]4C(C)C)n3)cc2)cc1` [IS04, N-(4-((4-((S)-1-((4-((S)-4-isopropyl-2-oxooxazolidin-3-yl)pyrimidin-2-yl)amino)ethyl)phenyl)amino)phenyl)acrylamide], the IC50 was greater than 10 µM against WT IDH1, 0.00755 µM against IDH1 (R132C) and 0.0105 µM against IDH1 (R132H).
In the case of `C=CC(=O)Nc1cccc(Nc2ccc([C@H](C)Nc3nccc(N4C(=O)OC[C@@H]4C(C)C)n3)cc2)c1` [IS05, N-(3-((4-((S)-1-((4-((S)-4-isopropyl-2-oxooxazolidin-3-yl)pyrimidin-2-yl)amino)ethyl)phenyl)amino)phenyl)acrylamide], the IC50 is greater than 1.48 µM at WT IDH1 and 0.00467 µM against IDH1 (R132C).
On to `C=CC(=O)N1CCC(Oc2ccc(C(C)Nc3nccc(N4C(=O)OC[C@@H]4C(C)C)n3)cn2)CC1` (stereo partly drawn) [IS07, (4S)-3-(2-((1-(6-((1-acryloylpiperidin-4-yl)oxy)pyridin-3-yl)ethyl)amino)pyrimidin-4-yl)-4-isopropyloxazolidin-2-one], for which the IC50 on IDH1 (R132H) is 0.34 µM.
Turning to `C=CC(=O)Nc1ccc(N(C)c2cnc(C(C)Nc3nccc(N4C(=O)OC[C@@H]4C(C)C)n3)nc2)cc1` (stereo partly drawn) [IS012, N-(4-((2-(1-((4-((S)-4-isopropyl-2-oxooxazolidin-3-yl)pyrimidin-2-yl)amino)ethyl)pyrimidin-5-yl)(methyl)amino)phenyl)acrylamide], the IC50 was 0.198 µM at IDH1 (R132C) and 0.161 µM against IDH1 (R132H).
Take `C=CC(=O)Nc1cccc(-c2cnc(C(C)Nc3nccc(N4C(=O)OC[C@@H]4C(C)C)n3)nc2)c1` (stereo partly drawn) [IS013, N-(3-(2-(1-((4-((S)-4-isopropyl-2-oxooxazolidin-3-yl)pyrimidin-2-yl)amino)ethyl)pyrimidin-5-yl)phenyl)acrylamide]: the IC50 at IDH1 (R132C) is 0.285 µM; against IDH1 (R132H), 0.107 µM.
Regarding `C=CC(=O)N1CCN(Cc2ccc([C@H](C)Nc3nc(N4C(=O)OC[C@@H]4C(C)C)c4sccc4n3)cc2)CC1` [IS014, (S)-3-(2-(((S)-1-(4-((4-acryloylpiperazin-1-yl)methyl)phenyl)ethyl)amino)thieno [3,2-d]pyrimidin-4-yl)-4-isopropyloxazolidin-2-one], half-maximal inhibition against IDH1 (R132C) (IC50) required 0.00261 µM.

As a reminder, the IC50 is the concentration that inhibits the measured activity by half. A low value points to inhibition by little substance.
